Results published in ChEMBL document CHEMBL5442175, “EUbOPEN Chemogenomics Library - PDSP Secondary Binding” (2024).
Where a name gives a salt, the structure may show the parent alone.

Key:
D(1B) dopamine receptor = D(1B) dopamine receptor (Homo sapiens, UniProt P21918); assay: (§1) PDSP Secondary Binding target: DRD5 - Compounds are tested at 10 uM concentration, plate are incubated at room temperature in the dark for 90 minutes. Reaction are stopped by vacuum filtration onto 0.3% polyethyleneimine soaked filter mats using Filtermate harvester. Scintillation cocktail is then melted onto microwave-dried filters on a hot plate and the radio activity is counted in Microbia counter.
[1] = biological target: Sodium-dependent serotonin transporter (Homo sapiens, UniProt P31645); assay: as §1, with “SLC6A4” for “DRD5”
[2] = biological target: T1, Alpha-2C adrenergic receptor (Homo sapiens, UniProt P18825); assay: as §1, with “ADRA2C” for “DRD5”
T1 sequence (P18825 whole entry): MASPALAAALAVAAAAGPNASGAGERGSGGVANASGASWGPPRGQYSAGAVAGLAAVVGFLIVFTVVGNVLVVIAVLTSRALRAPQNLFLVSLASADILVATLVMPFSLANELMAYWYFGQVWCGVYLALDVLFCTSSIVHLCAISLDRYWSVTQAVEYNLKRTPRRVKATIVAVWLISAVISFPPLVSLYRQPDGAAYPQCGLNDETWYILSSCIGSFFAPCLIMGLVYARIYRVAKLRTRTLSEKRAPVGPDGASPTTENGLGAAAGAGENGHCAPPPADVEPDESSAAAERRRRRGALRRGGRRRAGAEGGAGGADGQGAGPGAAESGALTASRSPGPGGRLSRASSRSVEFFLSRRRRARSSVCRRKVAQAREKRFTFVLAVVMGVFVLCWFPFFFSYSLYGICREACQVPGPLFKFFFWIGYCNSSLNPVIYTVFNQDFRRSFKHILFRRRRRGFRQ

D(1A) dopamine receptor = D(1A) dopamine receptor (Homo sapiens, UniProt P21728); assay: as §1, with “DRD1” for “DRD5”
Histamine H1 receptor = Histamine H1 receptor (Homo sapiens, UniProt P35367); assay: as §1, with “HRH1” for “DRD5”
[3] = biological target: 5-hydroxytryptamine receptor 2A (Homo sapiens, UniProt P28223); assay: as §1, with “HTR2A” for “DRD5”
D(2) dopamine receptor = D(2) dopamine receptor (Homo sapiens, UniProt P14416); assay: as §1, with “DRD2” for “DRD5”
[4] = biological target: T2, Muscarinic acetylcholine receptor M5 (Homo sapiens, UniProt P08912); assay: as §1, with “CHRM5” for “DRD5”
T2 sequence (P08912 whole entry): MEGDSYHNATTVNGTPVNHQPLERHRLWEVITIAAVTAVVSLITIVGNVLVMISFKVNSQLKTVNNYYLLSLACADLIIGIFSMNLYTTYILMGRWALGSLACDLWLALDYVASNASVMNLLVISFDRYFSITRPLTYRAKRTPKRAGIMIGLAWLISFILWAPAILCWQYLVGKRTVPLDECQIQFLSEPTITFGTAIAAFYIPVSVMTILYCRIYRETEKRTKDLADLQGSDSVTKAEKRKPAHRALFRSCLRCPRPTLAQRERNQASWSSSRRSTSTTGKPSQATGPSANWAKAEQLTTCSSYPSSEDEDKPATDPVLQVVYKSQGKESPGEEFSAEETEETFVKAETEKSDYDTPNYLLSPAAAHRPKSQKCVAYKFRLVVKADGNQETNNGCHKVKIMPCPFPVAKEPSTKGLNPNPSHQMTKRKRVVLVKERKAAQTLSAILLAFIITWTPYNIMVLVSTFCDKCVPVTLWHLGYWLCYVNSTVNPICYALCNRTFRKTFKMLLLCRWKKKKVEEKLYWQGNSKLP

Mu-type opioid receptor = Mu-type opioid receptor (Homo sapiens, UniProt P35372); assay: as §1, with “OPRM1” for “DRD5”
[5] = biological target: Muscarinic acetylcholine receptor M3 (Homo sapiens, UniProt P20309); assay: as §1, with “CHRM3” for “DRD5”
[6] = biological target: 5-hydroxytryptamine receptor 2B (Homo sapiens, UniProt P41595); assay: as §1, with “HTR2B” for “DRD5”
[7] = biological target: T3, Muscarinic acetylcholine receptor M1 (Homo sapiens, UniProt P11229); assay: as §1, with “CHRM1” for “DRD5”
T3 sequence (P11229 whole entry): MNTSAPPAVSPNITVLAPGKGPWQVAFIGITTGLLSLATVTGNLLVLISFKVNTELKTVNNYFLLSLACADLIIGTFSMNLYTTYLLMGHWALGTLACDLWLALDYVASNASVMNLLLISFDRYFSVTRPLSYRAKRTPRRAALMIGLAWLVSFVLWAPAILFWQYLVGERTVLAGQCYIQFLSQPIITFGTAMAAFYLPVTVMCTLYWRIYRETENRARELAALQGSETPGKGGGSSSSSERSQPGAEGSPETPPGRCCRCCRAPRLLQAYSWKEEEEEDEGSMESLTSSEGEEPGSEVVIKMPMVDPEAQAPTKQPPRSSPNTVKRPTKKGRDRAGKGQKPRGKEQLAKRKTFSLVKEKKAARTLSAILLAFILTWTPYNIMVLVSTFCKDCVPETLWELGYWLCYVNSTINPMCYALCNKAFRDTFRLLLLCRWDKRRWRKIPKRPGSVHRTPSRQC

5-hydroxytryptamine receptor 2B, sequence (P41595 whole entry): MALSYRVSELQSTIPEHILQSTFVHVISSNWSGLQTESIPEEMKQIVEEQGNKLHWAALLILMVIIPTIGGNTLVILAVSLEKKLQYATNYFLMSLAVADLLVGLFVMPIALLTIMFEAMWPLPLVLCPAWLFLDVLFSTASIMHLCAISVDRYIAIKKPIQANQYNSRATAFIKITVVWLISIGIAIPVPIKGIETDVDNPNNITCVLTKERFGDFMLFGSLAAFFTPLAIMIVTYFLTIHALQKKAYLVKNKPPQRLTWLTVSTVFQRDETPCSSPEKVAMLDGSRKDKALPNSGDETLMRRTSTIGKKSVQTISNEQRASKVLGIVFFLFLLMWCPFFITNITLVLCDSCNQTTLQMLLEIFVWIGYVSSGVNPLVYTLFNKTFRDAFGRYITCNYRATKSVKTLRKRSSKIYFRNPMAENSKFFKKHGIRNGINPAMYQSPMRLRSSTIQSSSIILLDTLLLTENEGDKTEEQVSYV
Histamine H1 receptor, sequence (P35367 whole entry): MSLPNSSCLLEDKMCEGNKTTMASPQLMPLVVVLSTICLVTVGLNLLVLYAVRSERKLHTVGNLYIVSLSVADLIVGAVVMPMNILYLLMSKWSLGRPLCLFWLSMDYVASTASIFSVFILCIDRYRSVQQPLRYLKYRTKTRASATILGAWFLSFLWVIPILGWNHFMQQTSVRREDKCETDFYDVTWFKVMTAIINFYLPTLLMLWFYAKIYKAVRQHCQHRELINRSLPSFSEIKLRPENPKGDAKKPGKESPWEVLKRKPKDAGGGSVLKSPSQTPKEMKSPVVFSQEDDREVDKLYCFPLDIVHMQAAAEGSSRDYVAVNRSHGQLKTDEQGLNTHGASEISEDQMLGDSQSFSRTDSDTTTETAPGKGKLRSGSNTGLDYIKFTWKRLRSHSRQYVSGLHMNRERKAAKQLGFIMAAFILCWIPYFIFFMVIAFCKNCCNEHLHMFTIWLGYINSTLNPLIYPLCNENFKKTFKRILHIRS
Sodium-dependent serotonin transporter, sequence (P31645 whole entry): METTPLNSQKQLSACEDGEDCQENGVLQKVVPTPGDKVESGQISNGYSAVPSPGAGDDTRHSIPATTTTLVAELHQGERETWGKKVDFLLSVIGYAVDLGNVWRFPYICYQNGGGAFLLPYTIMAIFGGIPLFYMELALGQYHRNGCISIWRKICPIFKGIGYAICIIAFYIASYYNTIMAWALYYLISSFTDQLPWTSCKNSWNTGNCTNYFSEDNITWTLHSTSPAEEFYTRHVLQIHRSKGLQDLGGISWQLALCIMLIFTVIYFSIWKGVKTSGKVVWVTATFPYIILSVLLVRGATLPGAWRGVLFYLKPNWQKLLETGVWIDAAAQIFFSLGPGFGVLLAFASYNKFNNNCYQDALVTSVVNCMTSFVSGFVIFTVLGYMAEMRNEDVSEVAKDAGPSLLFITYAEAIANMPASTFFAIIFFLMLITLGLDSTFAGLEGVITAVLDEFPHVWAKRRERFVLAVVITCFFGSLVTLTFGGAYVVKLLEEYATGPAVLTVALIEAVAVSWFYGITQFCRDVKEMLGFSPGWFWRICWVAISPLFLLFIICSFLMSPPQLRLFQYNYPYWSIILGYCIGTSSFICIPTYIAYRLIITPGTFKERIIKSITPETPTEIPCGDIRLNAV
5-hydroxytryptamine receptor 2A, sequence (P28223 whole entry): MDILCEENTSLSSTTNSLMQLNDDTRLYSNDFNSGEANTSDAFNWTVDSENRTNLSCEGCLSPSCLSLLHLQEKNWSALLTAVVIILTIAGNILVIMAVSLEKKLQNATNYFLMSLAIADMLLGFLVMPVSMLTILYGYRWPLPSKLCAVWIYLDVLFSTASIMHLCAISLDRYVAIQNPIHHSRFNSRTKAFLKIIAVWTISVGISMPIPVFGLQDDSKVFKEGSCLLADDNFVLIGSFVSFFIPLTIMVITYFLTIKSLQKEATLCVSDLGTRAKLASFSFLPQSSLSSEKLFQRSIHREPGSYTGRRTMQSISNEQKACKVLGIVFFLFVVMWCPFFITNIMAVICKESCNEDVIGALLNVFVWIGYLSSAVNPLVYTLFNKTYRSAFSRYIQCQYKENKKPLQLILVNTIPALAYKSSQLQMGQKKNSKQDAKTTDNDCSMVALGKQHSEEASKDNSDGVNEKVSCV
D(2) dopamine receptor, sequence (P14416 whole entry): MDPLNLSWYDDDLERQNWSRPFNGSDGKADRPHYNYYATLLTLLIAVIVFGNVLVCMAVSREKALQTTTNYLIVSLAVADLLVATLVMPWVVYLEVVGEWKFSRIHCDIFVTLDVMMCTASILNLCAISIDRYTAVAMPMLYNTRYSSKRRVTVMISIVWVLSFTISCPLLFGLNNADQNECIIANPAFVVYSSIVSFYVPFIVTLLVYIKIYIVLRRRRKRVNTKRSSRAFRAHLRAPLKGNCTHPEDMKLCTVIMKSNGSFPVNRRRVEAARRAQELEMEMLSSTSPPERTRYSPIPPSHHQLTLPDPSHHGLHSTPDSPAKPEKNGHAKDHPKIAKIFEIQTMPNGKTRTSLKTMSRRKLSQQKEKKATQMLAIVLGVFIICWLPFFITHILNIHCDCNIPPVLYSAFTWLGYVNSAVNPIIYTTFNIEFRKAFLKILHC
D(1B) dopamine receptor, sequence (P21918 whole entry): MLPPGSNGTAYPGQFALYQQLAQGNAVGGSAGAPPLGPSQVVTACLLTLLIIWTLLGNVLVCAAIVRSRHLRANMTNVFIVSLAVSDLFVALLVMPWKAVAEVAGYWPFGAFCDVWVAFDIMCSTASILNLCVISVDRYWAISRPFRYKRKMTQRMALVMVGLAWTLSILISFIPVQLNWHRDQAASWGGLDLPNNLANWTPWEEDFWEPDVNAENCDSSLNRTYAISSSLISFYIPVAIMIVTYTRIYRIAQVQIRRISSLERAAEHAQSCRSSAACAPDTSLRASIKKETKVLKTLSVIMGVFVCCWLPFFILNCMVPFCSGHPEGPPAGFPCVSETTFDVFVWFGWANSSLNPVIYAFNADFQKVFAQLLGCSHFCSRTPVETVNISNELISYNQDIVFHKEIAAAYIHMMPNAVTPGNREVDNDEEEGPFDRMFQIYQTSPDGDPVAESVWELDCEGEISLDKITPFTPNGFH
D(1A) dopamine receptor, sequence (P21728 whole entry): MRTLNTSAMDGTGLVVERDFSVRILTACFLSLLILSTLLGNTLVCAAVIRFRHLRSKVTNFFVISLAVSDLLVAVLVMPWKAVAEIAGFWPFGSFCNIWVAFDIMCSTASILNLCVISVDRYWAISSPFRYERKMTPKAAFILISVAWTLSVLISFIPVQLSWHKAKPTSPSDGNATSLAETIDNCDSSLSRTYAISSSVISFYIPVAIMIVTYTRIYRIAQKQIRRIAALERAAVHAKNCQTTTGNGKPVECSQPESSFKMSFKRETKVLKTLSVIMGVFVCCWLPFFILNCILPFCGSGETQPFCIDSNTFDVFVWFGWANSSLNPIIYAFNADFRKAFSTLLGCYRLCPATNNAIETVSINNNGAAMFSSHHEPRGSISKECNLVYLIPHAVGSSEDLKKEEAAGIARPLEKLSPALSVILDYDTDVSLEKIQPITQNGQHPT
Muscarinic acetylcholine receptor M3, sequence (P20309 whole entry): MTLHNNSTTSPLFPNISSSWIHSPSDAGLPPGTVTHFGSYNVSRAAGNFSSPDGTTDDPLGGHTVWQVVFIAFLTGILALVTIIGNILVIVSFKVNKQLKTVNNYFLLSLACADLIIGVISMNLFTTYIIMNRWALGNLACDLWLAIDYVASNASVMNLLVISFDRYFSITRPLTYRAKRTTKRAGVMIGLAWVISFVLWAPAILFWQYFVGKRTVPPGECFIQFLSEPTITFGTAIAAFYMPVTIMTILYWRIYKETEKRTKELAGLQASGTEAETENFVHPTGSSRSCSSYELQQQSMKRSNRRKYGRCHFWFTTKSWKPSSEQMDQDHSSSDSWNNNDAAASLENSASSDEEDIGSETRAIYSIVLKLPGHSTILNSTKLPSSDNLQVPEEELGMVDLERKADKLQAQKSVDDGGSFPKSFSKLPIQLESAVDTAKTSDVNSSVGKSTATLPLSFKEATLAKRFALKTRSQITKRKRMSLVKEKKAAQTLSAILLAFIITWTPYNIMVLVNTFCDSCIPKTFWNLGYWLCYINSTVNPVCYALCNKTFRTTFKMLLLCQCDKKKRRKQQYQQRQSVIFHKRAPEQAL
Mu-type opioid receptor, sequence (P35372 whole entry): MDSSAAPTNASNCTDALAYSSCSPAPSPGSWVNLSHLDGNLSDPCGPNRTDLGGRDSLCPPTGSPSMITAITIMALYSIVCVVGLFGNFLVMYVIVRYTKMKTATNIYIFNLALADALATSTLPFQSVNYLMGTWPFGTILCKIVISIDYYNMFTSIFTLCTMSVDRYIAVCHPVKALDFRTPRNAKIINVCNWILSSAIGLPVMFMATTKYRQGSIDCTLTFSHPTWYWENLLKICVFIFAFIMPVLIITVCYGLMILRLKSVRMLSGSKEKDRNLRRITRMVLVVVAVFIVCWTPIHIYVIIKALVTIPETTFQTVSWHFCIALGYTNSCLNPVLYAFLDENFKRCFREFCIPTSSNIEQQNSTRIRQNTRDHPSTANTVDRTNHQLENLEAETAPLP

| Compound | Ki (D(1B) dopamine receptor) | Ki [1] | Ki [2] | Ki (D(1A) dopamine receptor) | Ki (Histamine H1 receptor) | Ki [3] | Ki (D(2) dopamine receptor) | Ki [4] | Ki (Mu-type opioid receptor) | Ki [5] | Ki [6] | Ki [7] |
| --- | --- | --- | --- | --- | --- | --- | --- | --- | --- | --- | --- | --- |
| S=C(NCCCc1c[nH]cn1)NCCCN(Cc1ccc(Cl)c(Cl)c1)c1ccc(Br)cn1 | 1980 nM | 209 nM | 536 nM | 1720 nM | 649 nM | 202 nM | – | 491 nM | – | – | – | 2580 nM |
| COc1ccc(NC(=O)c2ccc(-c3ccc(-c4noc(C)n4)cc3C)cc2)cc1OCCN(C)C | – | 833 nM | 704 nM | – | – | 35.7 nM | – | – | – | – | – | 1910 nM |
| CCc1ccc(OCc2ccccc2C(=O)Nc2ccc3nc(C)cc(N)c3c2)cc1 | – | – | – | – | – | 548 nM | – | – | 495 nM | – | 227 nM | 2330 nM |
| CN1C[C@H](C(=O)N[C@]2(C)O[C@@]3(O)[C@@H]4CCCN4C(=O)[C@H](Cc4ccccc4)N3C2=O)C[C@@H]2c3cccc4[nH]cc(c34)C[C@H]21 [DIHYDROERGOTAMINE MESYLATE] | 2950 nM | – | – | – | – | – | 60.9 nM | – | 154 nM | – | – | – |
| C[C@H](Cc1cc2c(c(C(N)=O)c1)N(CCCO)CC2)NCCOc1ccccc1OCC(F)(F)F [SILODOSIN] | – | – | 360 nM | – | 3530 nM | – | 989 nM | – | – | – | 2090 nM | – |
| Cc1c(P(=S)(c2ccccc2)c2ccccc2)n2ccccc2[n+]1C/C=C/c1ccccc1 | – | – | 222 nM | – | > 10000 nM | 2790 nM | – | 510 nM | 102 nM | 1140 nM | – | 1180 nM |
| CCCCCNC(=N)N/N=C/c1c[nH]c2ccc(OC)cc12 [TEGASEROD MALEATE] | 4120 nM | – | – | – | – | 431 nM | 297 nM | – | 2850 nM | – | 15.6 nM | – |
| Clc1cccc(COc2cncc(N3CCNCC3)n2)c1 | – | – | – | – | 1450 nM | 105 nM | – | 293 nM | – | 851 nM | 9.94 nM | 955 nM |
| OCc1cc(C(O)CNCCCCCCOCCCCc2ccccc2)ccc1O (stereo not given) [SALMETEROL] | – | – | – | – | – | – | – | 971 nM | – | – | – | – |
| CN1CCCC(n2nc(Cc3ccc(Cl)cc3)c3ccccc3c2=O)CC1 (stereo not given) [AZELASTINE HYDROCHLORIDE] | – | – | – | 577 nM | – | 230 nM | 1180 nM | – | – | > 10000 nM | – | – |
| Cc1nc(-c2ccc(-c3ccc(C(=O)N4CCc5cc6c(cc54)C4(CCN(C)CC4)CO6)cc3)c(C)c2)no1 [SB-224289] | 1080 nM | – | – | 369 nM | – | 1780 nM | – | 344 nM | – | 926 nM | – | 1260 nM |
| CN(C)C(=O)N[C@H]1CC[C@H](CCN2CCN(c3cccc(Cl)c3Cl)CC2)CC1 [CARIPRAZINE HYDROCHLORIDE] | – | – | 234 nM | – | – | – | – | 1430 nM | – | – | – | – |

Other lines, results leading:

| Ki (D(1B) dopamine receptor) | Ki [1] | Ki [2] | Ki (D(1A) dopamine receptor) | Ki (Histamine H1 receptor) | Ki [3] | Ki (D(2) dopamine receptor) | Ki [4] | Ki (Mu-type opioid receptor) | Ki [5] | Ki [6] | Ki [7] | Compound |
| --- | --- | --- | --- | --- | --- | --- | --- | --- | --- | --- | --- | --- |
| 344 nM | 65.6 nM | 59.9 nM | 37.5 nM | 8.88 nM | 18.3 nM | 5.99 nM | – | – | – | – | – | O=c1ccc2ccc(OCCCCN3CCN(c4cccc5sccc45)CC3)cc2[nH]1 [BREXPIPRAZOLE] |
| 1240 nM | 862 nM | – | 370 nM | 89.7 nM | – | 280 nM | 718 nM | 129 nM | 2150 nM | – | – | COC(=O)C1=C(C)NC(C)=C(C(=O)OCCCN2CCC(c3ccccc3)(c3ccccc3)CC2)[C@H]1c1cccc([N+](=O)[O-])c1 [NIGULDIPINE] |
| – | – | 1380 nM | – | 364 nM | – | 553 nM | – | 730 nM | – | 65 nM | – | N#Cc1ccc2[nH]cc(CCCCN3CCN(c4ccc5oc(C(N)=O)cc5c4)CC3)c2c1 [VILAZODONE HYDROCHLORIDE] |
| – | 1150 nM | – | 4540 nM | 403 nM | – | – | – | – | – | – | 717 nM | CN1CCN(c2ccc(Nc3c4ccccc4nc4ccccc34)cc2)CC1 |
| – | – | 2920 nM | – | – | 726 nM | 1550 nM | – | – | – | 603 nM | – | Cc1ccc2c(c1)c1c(n2CCc2ccc(C)nc2)CCN(C)C1 [LATREPIRDINE] |
| – | > 10000 nM | – | – | – | – | – | 2640 nM | – | 4130 nM | 528 nM | 1240 nM | COc1cc(-n2cnc3cc(-c4ccc(Cl)cc4)sc3c2=O)ccc1OCCN1CCCC1 |
| 493 nM | 568 nM | 375 nM | 330 nM | 12.2 nM | – | 184 nM | – | 344 nM | – | – | – | Cc1nc2sccn2c(=O)c1CCN1CCC(=C(c2ccc(F)cc2)c2ccc(F)cc2)CC1 [RITANSERIN] |
| – | 1100 nM | 1030 nM | – | 30.6 nM | – | – | – | – | – | – | – | O=S1(=O)c2cccc3cccc(c23)N1CCCN1CCN(c2ccc(F)cc2)CC1 [FANANSERIN] |
| – | – | 359 nM | – | 125 nM | – | 736 nM | – | – | – | – | – | CCc1nn(CCCN2CCN(c3cccc(Cl)c3)CC2)c(=O)n1CCOc1ccccc1 [NEFAZODONE HYDROCHLORIDE] |
